Test results from PubChem BioAssay (NCI).
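Each compound was tested at five concentrations against cells in 96-well plates for 48 hours. TGI: total growth inhibition.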

What was measured:
Assay in all cases: NCI anticancer screen, dose series, 48 h
TK-10 renal = tested on: TK-10 renal
SF-268 CNS = tested on: SF-268 CNS
K-562 leukemia = tested on: K-562 leukemia
SNB-19 CNS = tested on: SNB-19 CNS
SF-295 CNS = tested on: SF-295 CNS
NCI-H23 lung = tested on: NCI-H23 lung
OVCAR-5 ovarian = tested on: OVCAR-5 ovarian
MCF7 breast = tested on: MCF7 breast
SK-OV-3 ovarian = tested on: SK-OV-3 ovarian

Row | Structure (SMILES) | TGI (TK-10 renal) [µM] | TGI (SF-268 CNS) [µM] | TGI (K-562 leukemia) [µM] | TGI (SNB-19 CNS) [µM] | TGI (SF-295 CNS) [µM] | TGI (NCI-H23 lung) [µM] | TGI (OVCAR-5 ovarian) [µM] | TGI (MCF7 breast) [µM] | TGI (SK-OV-3 ovarian) [µM]
1 | C1CCCCC2(CCCCCCCCC3(CCC1)SCCS3)SCCS2 | > 100 | > 100 | > 100 | > 100 | > 100 | > 100 | > 100 | > 100 | > 100
2 | CCOC(=O)c1cn2c(n1)sc1cc(OC)ccc12 | > 100 | > 100 | > 100 | > 100 | > 65.5 | > 100 | > 100 | > 100 | > 100
3 | CN=C(Nc1ccc(OC)c2ccccc12)SC | > 10 | > 10 | > 10 | > 10 | > 10 | > 10 | > 10 | > 10 | > 10
4 | N#CCCN(CCC#N)c1ccc(/C=C2\N=C(c3ccccc3)N(c3ccc(C(=O)O)cc3)C2=O)cc1 | > 100 | 61.6 | > 100 | > 100 | > 100 |  | > 100 | > 100 | > 100
5 | COC(=O)CCC1(CCC(=O)OC)CCCCCCC(CCC(=O)OC)(CCC(=O)OC)C(=O)C1=O | > 100 | > 100 | > 100 | > 100 | > 100 | > 100 | > 100 | > 100 | > 100
6 | Oc1ccc(/C=C/c2cccc(/C=C/c3ccc(O)c(O)c3)n2)cc1O | 23.6 | 23.3 | 49.6 | 18.8 | 65.1 |  | 23.6 | 25.8 | 34
7 | CCc1ccc2[nH]c(O)c(C3=Nc4ccccc4C3=O)c2c1 | 37 | 90.6 | > 100 | 31.2 | 61.2 | > 100 | > 100 | 10.9 | 41.5
8 | CC1(C)OCC(C2OC3OC(C)(C)OC3C2c2ccccc2)O1 (centres undefined) | > 100 | > 100 | > 100 | > 100 | > 100 | 97.2 | > 100 | > 100 | > 100
9 | NC(=O)CSc1c2cc(O)ccc2nc2ccc(O)cc12 | > 10 | > 10 | > 10 | > 10 | > 10 | > 10 | > 10 | > 10 | > 10
10 | Cc1ccc(S(=O)(=O)CNC(=O)C(O)(O)C(F)(F)F)cc1 | > 100 | > 100 | > 100 | > 100 | > 100 | > 100 | > 100 | > 100 | > 100
11 | COC1(C2c3ccccc3CCN2C(=O)OC(C)(C)C)C(=O)C(c2ccccc2)=C1N(C)C (centres undefined) | > 100 | > 100 |  | > 100 | > 100 | 71.6 | > 100 | > 100 | > 100
12 | CCCCCCCCC/C=C1/CC(CO)(COC(=O)CC(C(C)C)C(C)C)OC1=O (centres undefined) | 15.1 | 25 | 28.6 | 23.9 | 16.2 | 26.9 | 24.6 | 24.4 | 31.5
13 | N#Cc1c2ccc([N+](=O)[O-])cc2c(=O)n2c1[nH]c1ccc(C(F)(F)F)cc12 | > 100 | > 100 | 45.7 | > 100 | 66.1 | 65.3 | > 100 | > 100 | > 100
14 | COc1ccc(C2=[S+]C(c3ccccc3)(c3ccccc3)c3ccccc32)cc1 | 73.3 | > 100 | > 100 | > 100 | 88.8 | 74.8 | 49.5 | > 100 | > 100
15 | CCOP(=O)(OCC)/C(C#N)=C/c1ccccn1 | > 100 | > 100 | > 100 | > 100 | > 100 | > 100 | > 100 | > 100 | > 100
16 | CC[C@@H](CCCCC1CC[C@H]2CC(=O)C[C@@H]12)OC (some centres undefined) | > 100 | > 100 | 80.1 | > 100 | > 100 | > 100 | > 100 | > 100 | > 100
17 | COc1cc(/C=N/N=C(\N)NO)cc(OC)c1OC | > 100 | > 100 | 49.2 | > 100 | 53.2 | > 100 | > 100 | 85.9 | > 100
18 | CC(C)(C)C(=O)Oc1ccc(/C=C/C(=O)c2ccc(OC(=O)C(C)(C)C)cc2)cc1 | > 100 | > 100 | 86.7 | > 100 | > 100 | > 100 | > 100 | > 100 | > 100
19 | O=c1oc(-c2ccc(O)cc2)cc2cc(O)ccc12 | > 100 | 97.6 | 39.8 | 93.6 | > 100 | 57.6 | > 100 | 52.9 | 74.9
20 | CCOC(=O)C(=CNc1ccc(N(C2=NCC(C)S2)c2ccc(F)c(Cl)c2)cc1)C(=O)OCC (centres undefined) | 57.1 | 55.3 | > 100 | 54.5 | 64.2 | 33.9 | 39 | 53.9 | 70.7
21 | CC(C)=NOC(=O)CNC(=O)C(Cc1ccccc1)NC(=O)C(C)NC(=O)OC(C)(C)C (centres undefined) | > 100 | > 100 | > 100 | > 100 | > 100 | > 100 | > 100 | > 100 | > 100
22 | Oc1[nH]c2ccccc2c1C1=Nc2ccccc2/C1=N\OCCOC1OCC(O)C(O)C1O (centres undefined) | > 100 | > 100 | > 100 | > 100 | > 100 | > 100 | > 100 | > 100 | 7.99
23 | CC1(C)CO[P@@](=S)(c2ccccn2)O[C@@H]1c1ccccc1 | > 100 | > 100 | > 100 | > 100 | > 100 | > 100 | > 100 | > 100 | > 100
